Here are results for 26 compounds from patent publication US20250026753A1, “FUSED TRIAZINONE DERIVATIVES AND METHODS OF USING THE SAME” (Rgenta Therapeutics, Inc., priority 2021, published 2025).

One test concerns K562. As to the kind of experiment: Cell proliferation assay (CellTiterGlo, 72 hour incubation), K562. The format is cell-based. Conditions: Homo sapiens, K562 cells, inhibition of cell proliferation, CellTiterGlo luminescence. As to the method: (§1) Various cancer cell lines including K562 and COLO201, were treated with the compounds of the present disclosure to assess their effect on inhibiting cell proliferation.
(§2) For compound preparation, test compounds were diluted in duplicates from 10 mM stocks in 11-points 1:3 serial dilutions in DMSO. Then 125 nL test compounds at the serial dilutions were dispensed into 384-well assay plate using Echo dispenser. Staurosporine at 1 mM stock (5 μM final concentration) and DMSO (0.500 final concentration) were used as the positive and negative controls respectively.
(§3) To prepare cell lines, each frozen cell line stock was resuspended and grown in proper growth medium to a density of 40,000 cells/mL. Then 25 μL of cell suspension were dispensed into the assay plate to give seed cell density at 1,000 cells/well, compounds at 50 μM top concentration with 11-point serial dilutions, and 0.5% o DMSO final concentration. Assay plates were then centrifuged at 300 rpm for 1 minute and then incubated at 37° C., 9500 humidity, 500 CO2 for 72 hours. After the 72 hour incubation, the assay plate and its contents were equilibrated at room temperature for approximately 30 minutes. 25 μL of CellTiterGlo reagent was added to the assay plate and mixed for two minutes on an orbital shaker. Then after 10 minutes of incubation of assay plate at from temperature, the luminescence (RLU) signals in each well were recorded using Envision plate reader, then converted to percentage inhibition values using the signals in staurosporine and DMSO treated wells as the references. IC50 values were determined by curve fitting in Levenberg-Marquardt algorithm.
(In general: Cellular ATP, detected with luciferase, serves as a proxy for viable cell number.)

A further test deals with COLO201. In words: Cell proliferation assay (CellTiterGlo, 72 hour incubation), COLO201. Type of test: cell-based. Conditions: Homo sapiens, COLO 201, COLO201 cells, inhibition of cell proliferation, CellTiterGlo luminescence. As to the method:
as §1, §2, §3

SMILES strings stand for the structures. Structures can show the parent of a compound that is named as a salt.

In the case of `Cc1cn2cc(-c3nc(=O)n4cc(N5CCNCC5)ccc4n3)cc(F)c2n1` [Compound 99, 2-{8-fluoro-2-methylimidazo[1,2-a]pyridin-6-yl}-7-(piperazin-1-yl)-4H-pyrido[1,2-a][1,3,5]triazin-4-one], in the test on K562, the IC50 is below 1 µM.
As for `Cc1cn2cc(-c3nc(=O)n4cc(N5CCNCC5)ccc4n3)cc(F)c2n1` [Compound 100, 2-(8-fluoro-2-methylimidazo[1,2-a]pyridin-6-yl)-7-(piperazin-1-yl)-4H-pyrido[1,2-a][1,3,5]triazin-4-one hydrochloride], the IC50 with COLO201 is below 1 µM.
In the case of `Cc1cn2cc(-c3nc(=O)n4cc(N5CCN[C@@H](C)C5)ccc4n3)cc(F)c2n1` [Compound 101], the IC50 in the test on K562 and with COLO201 was below 1 µM in each case.
Regarding `Cc1cn2cc(-c3nc(=O)n4cc(N5CCN[C@H](C)C5)ccc4n3)cc(F)c2n1` [Compound 102, (R)-2-(8-fluoro-2-methylimidazo[1,2-a]pyridin-6-yl)-7-(3-methylpiperazin-1-yl)-4H-pyrido[1,2-a][1,3,5]triazin-4-one formic acid], the half-maximal inhibitory concentration (IC50) with K562 was below 1 µM; with COLO201, 1 to 10 µM.
On the same counts, the results for `Cc1cn2cc(-c3nc(=O)n4cc(N5CCN(C)CC5)ccc4n3)cc(F)c2n1` [Compound 103, 2-(8-fluoro-2-methylimidazo[1,2-a]pyridin-6-yl)-7-(4-methylpiperazin-1-yl)-4H-pyrido[1,2-a][1,3,5]triazin-4-one] are 1 to 10 µM and 1 to 10 µM.
As to `Cc1cn2cc(-c3nc(=O)n4cc(N5CCCNCC5)ccc4n3)cc(F)c2n1` [Compound 104, 7-(1,4-diazepan-1-yl)-2-(8-fluoro-2-methylimidazo[1,2-a]pyridin-6-yl)-4H-pyrido[1,2-a][1,3,5]triazin-4-one hydrochloride], the IC50 in the test with K562 and with COLO201 was at least 10 µM in each case.
Regarding `Cc1cn2cc(-c3nc(=O)n4cc(N5CC6CCC(C5)N6)ccc4n3)cc(F)c2n1` [Compound 105, 7-(3,8-diazabicyclo[3.2.1]octan-3-yl)-2-(8-fluoro-2-methylimidazo[1,2-a]pyridin-6-yl)-4H-pyrido[1,2-a][1,3,5]triazin-4-one hydrochloride], the IC50 with K562 and in the test on COLO201 was at least 10 µM each time.
For the compound `Cc1cn2cc(-c3nc(=O)n4cc(N5CC6CNCC6C5)ccc4n3)cc(F)c2n1` (stereo not drawn) [Compound 106, 2-(8-fluoro-2-methylimidazo[1,2-a]pyridin-6-yl)-7-(hexahydropyrrolo[3,4-c]pyrrol-2(1H)-yl)-4H-pyrido[1,2-a][1,3,5]triazin-4-one hydrochloride], the IC50 in the test with K562 and in the test with COLO201 was at least 10 µM throughout.
`Cc1cn2cc(-c3nc(=O)n4cc(N5C[C@@H](C)N[C@@H](C)C5)ccc4n3)cc(F)c2n1` [Compound 107, 7-((3S,5R)-3,5-dimethylpiperazin-1-yl)-2-(8-fluoro-2-methylimidazo[1,2-a]pyridin-6-yl)-4H-pyrido[1,2-a][1,3,5]triazin-4-one hydrochloride]: the half-inhibitory concentration (IC50) in the test with K562 and in the test on COLO201 was below 1 µM in each case.
For `Cc1cn2cc(-c3nc(=O)n4cc(N5CCNCC5)cc(C)c4n3)cc(F)c2n1` [Compound 108, 2-(8-fluoro-2-methylimidazo[1,2-a]pyridin-6-yl)-9-methyl-7-(piperazin-1-yl)-4H-pyrido[1,2-a][1,3,5]triazin-4-one hydrochloride], the figures for the IC50 in the test on K562 and in the test with COLO201 were 1 to 10 µM and below 1 µM, respectively.
For `Cc1cn2cc(-c3nc(=O)n4cc(N5CCNC(C)(C)C5)ccc4n3)cc(F)c2n1` [Compound 109, 7-(3,3-dimethylpiperazin-1-yl)-2-(8-fluoro-2-methylimidazo [1,2-a]pyridin-6-yl)-4H-pyrido[1,2-a][1,3,5]triazin-4-one], in that order: below 1 µM and below 1 µM.
For `Cc1cn2cc(-c3nc(=O)n4cc(N5CCNCC5)cc(F)c4n3)cc(F)c2n1` [Compound 110, 9-fluoro-2-(8-fluoro-2-methylimidazo[1,2-a]pyridin-6-yl)-7-(piperazin-1-yl)-4H-pyrido[1,2-a][1,3,5]triazin-4-one hydrochloride], the IC50 in the test with K562 and in the test on COLO201 was below 1 µM throughout.
For the compound `Cc1cn2cc(-c3nc(=O)n4cc(C5=CCNCC5)ccc4n3)cc(F)c2n1` [Compound 111, 2-(8-fluoro-2-methylimidazo[1,2-a]pyridin-6-yl)-7-(1,2,3,6-tetrahydropyridin-4-yl)-4H-pyrido[1,2-a][1,3,5]triazin-4-one hydrochloride], the values for the IC50 in the test on K562 and in the test with COLO201 were 1 to 10 µM and below 1 µM, respectively.
`Cc1cn2cc(-c3nc(=O)n4cc(C5CCNC5)ccc4n3)cc(F)c2n1` (stereo not drawn) [Compound 112, 2-(8-fluoro-2-methylimidazo[1,2-a]pyridin-6-yl)-7-(pyrrolidin-3-yl)-4H-pyrido[1,2-a][1,3,5]triazin-4-one hydrochloride] displayed an IC50 in the test on K562 of 1 to 10 µM.
With `COc1cc(N2CCNCC2)cn2c(=O)nc(-c3cc(F)c4nc(C)cn4c3)nc12` [Compound 114, 2-(8-fluoro-2-methylimidazo[1,2-a]pyridin-6-yl)-9-methoxy-7-(piperazin-1-yl)-4H-pyrido[1,2-a][1,3,5]triazin-4-one hydrochloride], the IC50 in the test with K562 and with COLO201 was 1 to 10 µM throughout.
Take `Cc1cn2cc(-c3nc(=O)n4cc(N5CCNCC5)c(C)cc4n3)cc(F)c2n1` [Compound 115, 2-(8-fluoro-2-methylimidazo[1,2-a]pyridin-6-yl)-8-methyl-7-(piperazin-1-yl)-4H-pyrido[1,2-a][1,3,5]triazin-4-one hydrochloride]: the IC50 in the test with K562 was below 1 µM; in the test with COLO201, 1 to 10 µM.
`Cc1cn2cc(-c3nc(=O)n4cc(N5CCN[C@@H](C)C5)cc(C)c4n3)cc(C)c2n1` [Compound 123, (S)-2-(2,8-dimethylimidazo[1,2-a]pyridin-6-yl)-9-methyl-7-(3-methylpiperazin-1-yl)-4H-pyrido[1,2-a][1,3,5]triazin-4-one hydrochloride] had a 50% inhibitory concentration (IC50) with K562 of 1 to 10 µM.
In turn, `Cc1cn2cc(-c3nc(=O)n4cc(N5CCN(C)[C@@H](C)C5)cc(C)c4n3)cc(F)c2n1` [Compound 124, (S)-7-(3,4-dimethylpiperazin-1-yl)-2-(8-fluoro-2-methylimidazo[1,2-a]pyridin-6-yl)-9-methyl-4H-pyrido[1,2-a][1,3,5]triazin-4-one] yielded a half-maximal inhibitory concentration (IC50) with K562 of 1 to 10 µM.
Same read-out and setting: in the case of `Cc1cn2cc(-c3nc(=O)n4cc(N5CCNC(C)(C)C5)cc(C)c4n3)cc(F)c2n1` [Compound 125, 7-(3,3-dimethylpiperazin-1-yl)-2-(8-fluoro-2-methylimidazo [1,2-a]pyridin-6-yl)-9-methyl-4H-pyrido[1,2-a][1,3,5]triazin-4-one hydrochloride] it was 1 to 10 µM; in that of `Cc1cn2cc(-c3nc(=O)n4cc(N5CCNCC5)ccc4n3)cc(C)c2n1` [Compound 126, 2-2,8-dimethylimidazo[1,2-a]pyridin-6-yl-7-(piperazin-1-yl)-4H-pyrido[1,2-a][1,3,5]triazin-4-one hydrochloride], 1 to 10 µM.
`CC[C@H]1CN(c2cc(F)c3nc(-c4cc(F)c5nc(C)cn5c4)nc(=O)n3c2)CCN1` [Compound 128, 7-[(3S)-3-ethylpiperazin-1-yl]-9-fluoro-2-{8-fluoro-2-methylimidazo[1,2-a]pyridin-6-yl}-4H-pyrido[1,2-a][1,3,5]triazin-4-one] had an IC50 with K562 below 1 µM.
In the case of `Cc1cc2cc(-c3nc(=O)n4cc(N5CCN[C@@H](C)C5)cc(C)c4n3)cc(C)n2n1` [Compound 129, 2-{2,7-dimethylpyrazolo[1,5-a]pyridin-5-yl}-9-methyl-7-[(3S)-3-methylpiperazin-1-yl]-4H-pyrido[1,2-a][1,3,5]triazin-4-one], the IC50 with K562 lay within 1 to 10 µM.
Same read-out and setting: with `Cc1cn2cc(-c3nc(=O)n4cc(N5CCNC(C)(C)C5)cc(F)c4n3)cc(F)c2n1` [Compound 130, 7-(3,3-dimethylpiperazin-1-yl)-9-fluoro-2-{8-fluoro-2-methylimidazo[1,2-a]pyridin-6-yl}-4H-pyrido[1,2-a][1,3,5]triazin-4-one] the figure was below 1 µM.
For the compound `Cc1cn2cc(-c3nc(=O)n4cc(N5CCNC6(CC6)C5)cc(C)c4n3)cc(F)c2n1` [Compound 132, 7-{4,7-diazaspiro[2.5]octan-7-yl}-2-{8-fluoro-2-methylimidazo[1,2-a]pyridin-6-yl}-9-methyl-4H-pyrido[1,2-a][1,3,5]triazin-4-one], in the test with K562, the IC50 was 1 to 10 µM.
Still for that read-out and setting: with `Cc1cc2cc(-c3nc(=O)n4cc(N5CCN[C@@H](C)C5)ccc4n3)cc(C)n2n1` [Compound 134, (S)-2-(2,7-dimethylpyrazolo[1,5-a]pyridin-5-yl)-7-(3-methylpiperazin-1-yl)-4H-pyrido[1,2-a][1,3,5]triazin-4-one] the figure was 1 to 10 µM; with `Cc1cc2cc(-c3nc(=O)n4cc(N5CCNC(C)(C)C5)cc(F)c4n3)cc(C)n2n1` [Compound 135, 7-(3,3-dimethylpiperazin-1-yl)-2-(2,7-dimethylpyrazolo[1,5-a]pyridin-5-yl)-9-fluoro-4H-pyrido[1,2-a][1,3,5]triazin-4-one], 1 to 10 µM.

The IC50 is the concentration needed to halve the response being measured. Lower therefore signals higher potency.
